This note sets out measurements from article PMC12434670 (Journal of Medicinal Chemistry, 2025).

In this experiment the test system is Virg09 virus clones with HA mutations. It counts as cell-based, influenza A virus.
[1] abbreviates: read-out: Antiviral EC50 by MTS assay, mutant A81/82_1V.
Where [2] appears, read: read-out: Antiviral EC50 by MTS assay, mutant D90_2G.
Setting [3] is: read-out: Antiviral EC50 by MTS assay, mutant F118_1L.
The mark [4] stands for this setting: read-out: Antiviral EC50 by MTS assay, mutant S54_2P.
Setting [5] is: read-out: Antiviral EC50 by MTS assay, mutant T301_1I.
The mark [6] stands for this setting: read-out: EC50 against all virus clones selected under VF-57a or RL-007.

SMILES strings stand for the structures. Read-outs that look alike come from different tables or passages of the source.

As for `Cc1cc(CNC(=O)c2cc(Cl)cc(C(F)(F)F)c2)c(C)s1` [Compound 23, 3-Chloro-N-[(2,5-dimethylthiophen-3-yl)methyl]-5-(trifluoromethyl)benzamide], the EC50 by setting is: under setting [1], over 40 µM; under setting [2], over 40 µM; under setting [3], over 40 µM; under setting [4], over 40 µM; under setting [5], over 40 µM; under setting [6], over 40 µM.
On to `CC(C)c1ccccc1NCCN1CCCCC1` [RL-007, reference compound], for which the EC50 by setting is: under setting [1], over 40 µM; under setting [2], over 40 µM; under setting [3], over 40 µM; under setting [4], over 40 µM; under setting [5], over 40 µM; under setting [6], over 40 µM.
Take `O=C1c2c(O)c(=O)ccn2N([C@@H]2c3ccccc3SCc3c2ccc(F)c3F)[C@@H]2COCCN12` [BXA, baloxavir acid]: the “Activity against all viruses tested (in words)” value is “equally active”. The EC50 under setting [1] stood at 0.003 ± 0.0007 µM. For the same compound, under setting [2], the EC50 was 0.0017 ± 0.0002 µM. Besides, the EC50 under setting [3] was found to be 0.0025 ± 0.0005 µM. For the same compound, the EC50 under setting [4] was 0.0017 ± 0.0008 µM. Further, the EC50 under setting [5] came to 0.0019 ± 0.0001 µM.
